From patent publication EP1087941B9, “THIOLESTERS AND USES THEREOF” (THE UNITED STATES OF AMERICA, as represented by THE …, priority 1998, dated 1999)
Where two headings read alike, the source gives them in different places.

Assays:
[1] = system: CEM-SS cells; experiment: cells; format: cell-based; settings: for IC50: Homo sapiens, CEM-SS; for toxicity at the high test dose: high test dose of 316 µM
Source text: (§1) One exemplary means to determine antiviral activity is with CEM-SS cells and virus (e.g., HIV-1RF) (MOI = 0.01) using the XTT (2,3-bis[2-methoxy- 4-nitro-5-sulfophenyl] -5- [(phenylamino)carbonyl]-2H-tetrazolium hydroxide) cytoprotection assay, as described by Rice (1993) PNAS 90:9721-9724, and Rice (1997) Antimicrob. Agents Chemother. 41:419-426. Briefly, cells are infected with HIV-1RF (or other virus to be tested) in the presence of various dilutions of test compounds (thiolesters and controls). The cultures are incubated for seven days. During this time control cultures without protective compounds (i.e., compounds with anti-viral activity) replicate virus, induce syncytia, and result in about 90% cell death. The cell death is measured by XTT dye reduction. XTT is a soluble tetrazolimn dye that measures mitochondrial energy output, similar to MTT. Positive controls using dextran sulfate (an attachment inhibitor) or 3'-Azido -2'-3'-dideoxythymidine, AZT (a reverse transcriptase inhibitor) are added to each assay. Individual assays are done in duplicate using a sister plate method.
(§2) Effective antiviral concentrations providing 50% cytoprotection (EC50), and cellular growth inhibitory concentrations causing 50% cytotoxicity (IC50) are calculated.

[2] = system: HIV-1RF; experiment: XTT cytoprotection assay (antiviral activity); format: cell-based; settings: for antiviral activity: result in words
Source text: as §1, §2

[3] = target: T1, recombinant HIV-1 NCp7 protein (Human immunodeficiency virus type 1 group M subtype B, UniProt P03347); experiment: Trp37 zinc finger fluorescence (zinc ejection) assay; format: biochemical; settings: for Zinc Finger Reactivity RFU/30 min: Table 2; for zinc finger reactivity: result in words
T1 construct: within the nucleocapsid p7 (NCp7) protein portion of the polyprotein
Protocol: Zinc finger reactivity was measured using a Zn specific fluorochrome, TSQ, N-(6-methoxy-8-quinolyl) -p-toluenesulfonamide, assay or a Trp37 zinc finger fluorescence assay. Fluorescent measurements of the Trp37 residue in the C-terminal finger of recombinant HIV-1 NCp7 protein were performed as described by Rice (1995) Science 270:1194-1197; Rice (1997) Antimicrob. Agents Chemother. 41:419-426. Measurement of Zn ejection from both fingers was measured using the Zn-selective fluorchrome probe TSQ (Molecular Probes, Eugene OR) as described by Rice (1996) J. Med. Chem 39:3606-3616. Measurement of the ability of NCp7 to bind to a DNA oligomer, a 44 mer: […] (SEQ ID NO:1), analogous to the HIV-1 RNA packaging site was carried out as described by Huang (1998) J. Med. Chem. 41:1371-1381, see also, Rossio (1998) HIV Pathogenesis and Treatment: Keystone Symposium on Molecular and Cellular Biology, Abstract # 4082. Briefly, 50 nM NCp7 was treated with test compounds for 1 hour at RT in […] buffer containing 10% glycerol and 50 mM Tris-HCl (pH 7.5). Labeled oligomer (0.1 picomole, end labeled [^32P]) was added in an equal volume of buffer containing 10% glycerol, 50 mM Tris-HCl (pH 7.5), 400 mM KCl and 40 mM MgCl2. The reaction was continued for 15 min at room temperature, and a total of […] (or 1/4 of the total reaction volume) was separated on nondenaturing 4.5% polyacrylamide gels in 0.5X Tris-Borate electrophoresis buffer. NCp7-oligomer complexes were visualized by autoradiography.
Changes in the intrinsic fluorescence of aromatic protein moieties are commonly used to monitor a reaction which involves a change in protein conformation. In the present invention, fluorescence can be used to monitor the loss of metal ion from a zinc finger, e.g., the loss of zinc from a CCHC retroviral zinc finger protein, after contact with a thiolester of the invention. The intrinsic fluorescence of Trp 37 in the second zinc finger of HIV-1 NC protein has been used to monitor nucleic acid binding and conformation of the zinc finger complex (see, Summers (1992) supra).
Zinc ejection is measured by the ability of compounds to chemically attack the cysteines in purified NCp7 protein resulting in a loss of fluorescence due to the movement of the tryptophan 37 residue from an exposed to an internal position on the protein. Zinc ejection is measured and expressed as either percent decrease in total fluorescence or decrease in relative fluorescence units per min during a 30 min assay (RFU/min). A thiolester is considered within the scope of the invention if any amount of zinc ejection is detected. For example, compound 50 has a zinc ejection rate of 0.86 RFU/min.

[4] = read-out: Antiviral Activity IC50
[5] = read-out: IC50 / cellular toxicity
[6] = Human immunodeficiency virus 1, read-out: Antiviral Activity EC50
[7] = average decrease in relative fluorescence
[8] = Table 3, average decrease in relative fluorescence
[9] = Human immunodeficiency virus 1, B104
[10] = Human immunodeficiency virus 1, read-out: EC50 (concentration inhibiting 50% virus replication)
[11] = Table 4, average decrease in relative fluorescence units over 30 min
[12] = read-out: Antiviral Activity IC50%
[13] = Table 5, average decrease in relative fluorescence units over 30 min

NS(=O)(=O)c1ccc(Cn2sc3ccccc3c2=O)cc1 [23 BITA]
IC50 [1, 4]: 53.7 µM | IC50 [1, 5]: 53.7 µM | EC50 [2, 6]: 13.8 µM | Zinc Finger Reactivity RFU/30 min [3, 7]: 2.7 RFU/30 min

NS(=O)(=O)c1ccc(CCn2sc3ccccc3c2=O)cc1 [24 BITA]
IC50 [1, 4]: 45.5 µM | EC50 [2, 6]: 2 µM | Zinc Finger Reactivity RFU/30 min [3, 7]: 2.7 RFU/30 min

CC(=O)Nc1ccc(S(=O)(=O)Nc2ccc(S(=O)(=O)c3ccc(-n4sc5ccccc5c4=O)cc3)cc2)cc1 [28 BITA]
IC50 [1, 4]: 188 µM | EC50 [2, 6]: 9.6 µM | Zinc Finger Reactivity RFU/ min [3, 8]: 7.9 RFU/ min

O=c1c2ccccc2sn1-c1ccc(S(=O)(=O)c2ccc([N+](=O)[O-])cc2)cc1 [31 BITA]
IC50 [1, 4]: > 316 µM | EC50 [2, 6]: > 316 µM | antiviral activity [2]: without antiviral activity | Zinc Finger Reactivity RFU/ min [3, 8]: 4.1 RFU/ min

O=c1c2ccccc2sn1-c1ccc(S(=O)(=O)c2ccc(NS(=O)(=O)Cc3ccccc3[N+](=O)[O-])cc2)cc1 [34 BITA]
IC50 [1, 4]: 59.5 µM | EC50 [2, 6]: 3.2 µM | antiviral activity [2]: significant antiviral activity | Zinc Finger Reactivity RFU/ min [3, 8]: 2 RFU/ min

NS(=O)(=O)c1ccc(CNC(=O)c2ccccc2SSc2ccccc2C(=O)NCc2ccc(S(N)(=O)=O)cc2)cc1 [Compound 23D, N,N'-(2,2'-dithiodibenzoyl)-bis-4-(aminomethyl)benzene-sulfonamide]
IC50 [1, 4]: 19.4 µM | IC50 [1, 5]: 19.4 µM | EC50 [2, 6]: 0.33 µM | zinc finger reactivity / zinc ejection rate [3]: 3.3 RFU/min | Zinc Finger Reactivity RFU/30 min [3, 7]: 3.3 RFU/30 min

NS(=O)(=O)c1ccc(CCNC(=O)c2ccccc2SSc2ccccc2C(=O)NCCc2ccc(S(N)(=O)=O)cc2)cc1 [Compound 24D, N,N-(2,2'-dithiodibenzoyl)-bis-4-(2-aminoethyl)benzene-sulfonamide]
IC50 [1, 4]: 52.8 µM | EC50 [2, 6]: 0.41 µM | Zinc Finger Reactivity RFU/30 min [3, 7]: 2.7 RFU/30 min

NS(=O)(=O)c1ccc(NC(=O)CNC(=O)c2ccccc2SSc2ccccc2C(=O)NCC(=O)Nc2ccc(S(N)(=O)=O)cc2)cc1 [Compound 25D, N,N'-(2,2'-dithiodibenzoyl)-bis-4-(glycinamido)benzene-sulfonamide]
IC50 [1, 4]: 17.6 µM | EC50 [2, 6]: 1.6 µM | zinc finger reactivity / zinc ejection rate [3]: 7.9 RFU/min | Zinc Finger Reactivity RFU/30 min [3, 7]: 7.9 RFU/30 min

Nc1ccc(S(=O)(=O)c2ccc(NC(=O)c3ccccc3SSc3ccccc3C(=O)Nc3ccc(S(=O)(=O)c4ccc(N)cc4)cc3)cc2)cc1 [Compound 26D]
IC50 [1, 4]: < 316 µM | toxicity at the high test dose [1]: no toxicity | EC50 [2, 9]: 4.3 µM | EC50 [2, 6]: 4.3 µM | EC50 [2, 10]: 4.3 µM | zinc finger reactivity / zinc ejection rate [3]: 3.3 RFU/min | Zinc Finger Reactivity RFU/ min [3, 8]: 3.3 RFU/ min

CC(=O)Nc1ccc(S(=O)(=O)c2ccc(NC(=O)c3ccccc3SSc3ccccc3C(=O)Nc3ccc(S(=O)(=O)c4ccc(NC(C)=O)cc4)cc3)cc2)cc1 [Compound 27D]
IC50 [1, 4]: 160 µM | IC50 [1, 5]: 160 µM | EC50 [2, 9]: 1.5 µM | EC50 [2, 6]: 1.5 µM | EC50 [2, 10]: 1.5 µM | zinc finger reactivity / zinc ejection rate [3]: 5.9 RFU/min | Zinc Finger Reactivity RFU/ min [3, 8]: 5.9 RFU/ min

CC(=O)Nc1ccc(S(=O)(=O)Nc2ccc(S(=O)(=O)c3ccc(NC(=O)c4ccccc4SSc4ccccc4C(=O)Nc4ccc(S(=O)(=O)c5ccc(NS(=O)(=O)c6ccc(NC(C)=O)cc6)cc5)cc4)cc3)cc2)cc1 [Compound 28D]
IC50 [1, 4]: 12.7 µM | EC50 [2, 6]: 1 µM | Zinc Finger Reactivity RFU/ min [3, 8]: 5.9 RFU/ min

COc1ccc(C(=O)Nc2ccc(S(=O)(=O)c3ccc(NC(=O)c4ccccc4SSc4ccccc4C(=O)Nc4ccc(S(=O)(=O)c5ccc(NC(=O)c6ccc(OC)cc6)cc5)cc4)cc3)cc2)cc1 [Compound 29D]
IC50 [1, 4]: 79.6 µM | EC50 [2, 6]: 3.8 µM | Zinc Finger Reactivity RFU/ min [3, 8]: 6.9 RFU/ min

O=C(Nc1ccc(S(=O)(=O)c2ccc(NC(=O)c3ccccc3SSc3ccccc3C(=O)Nc3ccc(S(=O)(=O)c4ccc(NC(=O)c5cccs5)cc4)cc3)cc2)cc1)c1cccs1 [Compound 30D]
IC50 [1, 4]: 190 µM | EC50 [2, 6]: 12.2 µM

O=C(Nc1ccc(S(=O)(=O)c2ccc([N+](=O)[O-])cc2)cc1)c1ccccc1SSc1ccccc1C(=O)Nc1ccc(S(=O)(=O)c2ccc([N+](=O)[O-])cc2)cc1 [Compound 31D]
IC50 [1, 4]: > 316 µM | toxicity at the high test dose [1]: no toxicity | EC50 [2, 6]: 12.2 µM | EC50 [2, 10]: 12.2 µM | Zinc Finger Reactivity RFU/ min [3, 8]: 2.9 RFU/ min

O=C(Nc1ccc(S(=O)(=O)c2ccc(NC(=O)c3ccccc3SSc3ccccc3C(=O)Nc3ccc(S(=O)(=O)c4ccc(NC(=O)c5ccc([N+](=O)[O-])cc5)cc4)cc3)cc2)cc1)c1ccc([N+](=O)[O-])cc1 [Compound 32D]
IC50 [1, 4]: > 316 µM | EC50 [2, 6]: 78 µM | Zinc Finger Reactivity RFU/ min [3, 8]: 2.9 RFU/ min

O=C(Nc1ccc(S(=O)(=O)c2ccc(NC(=O)c3ccccc3SSc3ccccc3C(=O)Nc3ccc(S(=O)(=O)c4ccc(NC(=O)c5cc([N+](=O)[O-])cc([N+](=O)[O-])c5)cc4)cc3)cc2)cc1)c1cc([N+](=O)[O-])cc([N+](=O)[O-])c1 [Compound 33D]
IC50 [1, 4]: > 316 µM | EC50 [2, 6]: 240 µM | Zinc Finger Reactivity RFU/ min [3, 8]: 1.6 RFU/ min

O=C(Nc1ccc(S(=O)(=O)c2ccc(NS(=O)(=O)Cc3ccccc3[N+](=O)[O-])cc2)cc1)c1ccccc1SSc1ccccc1C(=O)Nc1ccc(S(=O)(=O)c2ccc(NS(=O)(=O)Cc3ccccc3[N+](=O)[O-])cc2)cc1 [Compound 34D]
IC50 [1, 4]: > 316 µM | toxicity at the high test dose [1]: no toxicity | EC50 [2, 10]: 12.3 µM | antiviral activity [2]: significant antiviral activity | Zinc Finger Reactivity RFU/ min [3, 8]: 1.5 RFU/ min

Nc1cccc(S(=O)(=O)c2cccc(NC(=O)c3ccccc3SSc3ccccc3C(=O)Nc3cccc(S(=O)(=O)c4cccc(N)c4)c3)c2)c1 [Compound 35]
IC50 [1, 4]: 81.5 µM | EC50 [2, 9]: 1 µM | EC50 [2, 6]: 1 µM | zinc finger reactivity / zinc ejection rate [3]: 0.92 RFU/min | Zinc Finger Reactivity RFU/ min [3, 11]: 0.92 RFU/min

CC(=O)Nc1cccc(S(=O)(=O)c2cccc(NC(=O)c3ccccc3SSc3ccccc3C(=O)Nc3cccc(S(=O)(=O)c4cccc(NC(C)=O)c4)c3)c2)c1 [Compound 36]
IC50 [1, 4]: 5.9 µM | EC50 [2, 9]: 0.62 µM | EC50 [2, 6]: 0.62 µM | zinc finger reactivity / zinc ejection rate [3]: 2 RFU/min | Zinc Finger Reactivity RFU/ min [3, 11]: 2 RFU/min

CC(=O)NS(=O)(=O)c1ccc(NC(=O)c2ccccc2NC(=O)CCCl)cc1 [Compound 37, N-[2-(3-chloro-propionamido)benzoyl]sulfacetamide]
IC50 [1, 12]: > 316 µM | antiviral activity [2]: neither had appreciable antiviral activity | Zinc Finger Reactivity RFU/ min [3, 13]: RFU/ min^b 2.0 | zinc finger reactivity [3]: modest zinc finger reactivity

CC(=O)NS(=O)(=O)c1ccc(NC(=O)c2cccc(NC(=O)CCCl)c2)cc1 [Compound 38]
IC50 [1, 12]: 103 µM | EC50 [2, 6]: 38 µM | antiviral activity [2]: neither had appreciable antiviral activity | Zinc Finger Reactivity RFU/ min [3, 13]: 3.9 RFU/ min | zinc finger reactivity [3]: modest zinc finger reactivity

CC(=O)NS(=O)(=O)c1ccc(NC(=O)c2ccccc2NC(=O)CCl)cc1 [Compound 39]
IC50 [1, 12]: 202 µM | EC50 [2, 6]: > 316 µM | antiviral activity [2]: completely inactive | Zinc Finger Reactivity RFU/ min [3, 13]: 0.3 RFU/ min
